# Source: the supplement of paper PMC10307832
# Compound: Cc1nc(C(=O)NCC(=O)O)c(O)c2ccc(Oc3ccccc3)cc12 [FG-4592] + CS(=O)(=O)N1CCN(Cc2cc3nc(-c4cccc5[nH]ncc45)nc(N4CCOCC4)c3s2)CC1 [Pictilisib] (partner 1 µM)
# Assay: relative viability (nuclei count vs DMSO), 5 days (fraction); higher = more cells survive
# Conditions: first compound 0.08 µM
# Method in brief: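 The day after seeding in 1536-well plates, lung cancer cell lines were treated by pin tool with a single drug, or with a fixed anchor-drug dose together with five library-drug doses (not always all listed) in √10 steps. After 5 days, a combined fix-and-stain solution (final 0.05% Triton X-100, 1% formaldehyde, 1 ug/ml Hoechst) was added. Nuclei counted on 4× images gave relative viability as treated counts over vehicle counts, reported as the median of duplicate plates.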
row,Cell Line,relative viability
1,NCI-H727,0.311
2,NCI-H1650,0.428
3,EBC-1,0.401
4,NCI-H1703,0.271
5,NCI-H1993,0.834
6,SW 1573,0.504
7,NCI-H838,0.481
8,LCLC-103H,0.5
9,NCI-H520,0.269
10,NCI-H2126,0.487
11,EMC-BAC-2,0.439
12,NCI-H2085,0.356
13,Calu-6,0.885
14,HCC-366,0.0934
15,NCI-H1666,0.41
16,NCI-H596,0.337
17,NCI-H2087,0.934
18,SK-MES-1,0.358

row,Cell Line,relative viability
1,H3255,0.396
2,COR-L23,0.812
3,COR-L 105,0.372
4,IA-LM,0.358
5,LOU-NH91,0.456
6,ChaGo-K-1,0.769
7,NCI-H2170,0.348
8,HOP-62,0.831
9,A549,0.488
10,NCI-H2009,0.718
11,NCI-H661,0.29
12,SK-LU-1,0.436
13,NCI-H1299,0.913
14,CAL-12T,0.516
15,NCI-H2228,0.423
16,NCI-H2023,0.203
17,NCI-H1563,0.655

# Same assay, conditions: first compound 0.253 µM
row,Cell Line,relative viability
1,NCI-H727,0.274
2,NCI-H1650,0.549
3,EBC-1,0.371
4,NCI-H1703,0.236
5,NCI-H1993,0.774
6,SW 1573,0.402
7,NCI-H838,0.396
8,LCLC-103H,0.512
9,NCI-H520,0.293
10,NCI-H2126,0.483
11,EMC-BAC-2,0.476
12,NCI-H2085,0.425
13,Calu-6,0.859
14,HCC-366,0.104
15,NCI-H1666,0.341
16,NCI-H596,0.359
17,LK-2,0.638
18,NCI-H2087,0.707

row,Cell Line,relative viability
1,SK-MES-1,0.361
2,H3255,0.472
3,COR-L23,0.617
4,COR-L 105,0.326
5,IA-LM,0.291
6,LOU-NH91,0.51
7,ChaGo-K-1,0.714
8,NCI-H2170,0.28
9,NCI-H2405,0.266
10,HOP-62,0.55
11,A549,0.455
12,NCI-H2009,0.653
13,SK-LU-1,0.418
14,NCI-H1299,0.645
15,CAL-12T,0.494
16,NCI-H2228,0.36
17,NCI-H2023,0.202
18,NCI-H1563,0.624

# Same assay, conditions: first compound 0.8 µM
row,Cell Line,relative viability
1,NCI-H727,0.307
2,NCI-H1650,0.44
3,EBC-1,0.417
4,NCI-H1703,0.218
5,NCI-H1993,0.854
6,SW 1573,0.443
7,NCI-H838,0.363
8,LCLC-103H,0.509
9,NCI-H520,0.225
10,NCI-H2126,0.449
11,EMC-BAC-2,0.396
12,NCI-H2085,0.426
13,Calu-6,0.921
14,HCC-366,0.23
15,NCI-H1666,0.42
16,NCI-H2087,0.903
17,SK-MES-1,0.318
18,H3255,0.51

row,Cell Line,relative viability
1,COR-L23,0.849
2,COR-L 105,0.328
3,IA-LM,0.308
4,LOU-NH91,0.509
5,ChaGo-K-1,0.452
6,NCI-H2170,0.274
7,NCI-H2405,0.348
8,HOP-62,0.455
9,A549,0.452
10,NCI-H2009,0.647
11,NCI-H661,0.431
12,SK-LU-1,0.582
13,NCI-H1299,0.915
14,CAL-12T,0.221
15,NCI-H2228,0.248
16,NCI-H2023,0.143
17,NCI-H1563,0.657

# Same assay, conditions: first compound 2.53 µM
row,Cell Line,relative viability
1,NCI-H727,0.335
2,NCI-H1650,0.586
3,EBC-1,0.387
4,NCI-H1703,0.253
5,NCI-H1993,0.851
6,SW 1573,0.56
7,NCI-H838,0.494
8,LCLC-103H,0.714
9,NCI-H520,0.291
10,NCI-H2126,0.511
11,EMC-BAC-2,0.564
12,NCI-H2085,0.438
13,Calu-6,0.902
14,HCC-366,0.151
15,NCI-H1666,0.486
16,NCI-H596,0.377
17,LK-2,0.64
18,NCI-H2087,0.809
19,SK-MES-1,0.367

row,Cell Line,relative viability
1,H3255,0.44
2,COR-L23,0.685
3,COR-L 105,0.266
4,IA-LM,0.295
5,LOU-NH91,0.545
6,ChaGo-K-1,0.791
7,NCI-H2170,0.359
8,NCI-H2405,0.419
9,HOP-62,0.651
10,A549,0.489
11,NCI-H2009,0.671
12,NCI-H661,0.473
13,SK-LU-1,0.55
14,NCI-H1299,0.724
15,CAL-12T,0.555
16,NCI-H2228,0.45
17,NCI-H2023,0.205
18,NCI-H1563,0.648

# Same assay, conditions: first compound 8 µM
row,Cell Line,relative viability
1,NCI-H727,0.452
2,NCI-H1650,0.617
3,EBC-1,0.335
4,NCI-H1703,0.245
5,NCI-H1993,0.66
6,SW 1573,0.484
7,NCI-H838,0.433
8,LCLC-103H,0.654
9,NCI-H520,0.258
10,NCI-H2126,0.531
11,EMC-BAC-2,0.445
12,NCI-H2085,0.449
13,Calu-6,0.856
14,HCC-366,0.113
15,NCI-H1666,0.321
16,NCI-H596,0.433
17,LK-2,0.475
18,NCI-H2087,0.836
